Measured values from patent US20240245702A1, “Inhibition of Lysine Demethylase 1 (Lsd1) Induces Differentiation of Hair Cells” (Massachusetts Eye and Ear Infirmary, priority 2018, published 2024).

Tests used:
Assay type in all cases: cell-based, mouse
Myo7a = assay: qRT-PCR of Myo7a in differentiated LCP organoids; conditions: D10, pargyline-treated cells relative to standard treatment, p<0.05
Procedure: (§1) Differentiation of LCPs into a hair cell lineage. […] To analyze the effect of the Lsd1 inhibitors, the LCPs were treated with the small molecules combined with a differentiation drug cocktail, pargyline and CHIR99021 or CHIR99021 at 1, 2, 4, and 10 days (McLean et al., 2017).
(§2) RNA extraction and PCR. For the LCPs, the organoids were treated with Cell Recovery Solution for at 1 hour and TrypleE for 20 minutes, then frozen in RLT buffer. RNA extractions were performed using the RNeasy Micro Kit (QIAGEN) and cDNA generated using ImProm-II Reverse Transcription Kit (Promega). TaqMan Real-Time PCR was performed in triplicates using the TaqMan Gene Expression Master Mix (ThermoFisher Scientific) on a StepOne Real-Time PCR machine (ThermoFisher Scientific). Ordinary One-way Anova was used to assess statistical significance. A minimum of three biologically distinct samples were analyzed for each condition.
(§3) We next tested the effect of Lsd1 inhibition on hair cell differentiation. In this assay, after the cells were expanded into organoids during the initial proliferation phase, differentiation was initiated using the combination of CHIR99021 and LY411575 and allowed to progress for 10 days (DO to D10). Organoids were monitored for the development of hair cells using FACS and qRT-PCR. […] Conversely, Myo7a expression increases throughout development and is a key marker of mature hair cells. […]

Atoh1 locus = assay: Chromatin immunoprecipitation (ChIP-qPCR) of histone marks on the Atoh1 gene in LCPs
Procedure: Chromatin immunoprecipitation. The colonies were treated with Cell Recovery solution for up to 2 hours and TrypleE for 30 minutes. The cells were fixed with 1% formaldehyde for 30 minutes at room temperature before termination with 0.1M Glycine. The cells were treated with lysis buffer (0.5M EDTA and 0.05% Triton-X 100) for 30 minutes on ice and then with nuclear extraction buffer (0.5M EDTA, 20% SDS, 1M Tris-HCl, pH 8) for 10 minutes. The cross-linked chromatin was sonicated for 30 minutes (30×30 seconds with 30 second intervals) and shearing quality confirmed by running 10 ul of the sample on a 1% agarose gel. The input sample used was 5% of the total chromatin. Lo-bind tubes containing Dyna-A and Dyna-B beads in PBS-BSA were incubated with 3 μg of Primary antibody for 6 hours-overnight with rotation at 4° C. The antibodies used were as follows H3K4me (ab8895: Abcam), H3K4me2 (ab77661: Abcam), H3K9me2 (ab1220; Abcam) and Lsd1 (ab17721: Abcam). The chromatin samples were treated with dilution buffer (1% Triton-X 100, 0.5M EDTA, 5M NaCl, 1M Tris-HCl, pH 8 and 1% Protease inhibitors×100) and incubated with the prepared beads for 6 hours-overnight. The beads were captured on a magnetic rack, washed with ChIP RIPA buffer (1M Hepes, 0.5M EDTA, 10% Na-deoxycholate, NP-40 and 5M LiCl: 6×10 minute washes), TE buffer (1M Tris-HCl and 0.5M EDTA: 2×10 minute washes), resuspended in reverse crosslinking solution (0.5M NaHCO3 and 20% SDS) and incubated overnight at 65° C. DNA was recovered using the Active motif DNA extraction kit (58002: Active Motif). RT-qPCR analyses were performed on immunoprecipitated DNA using specific primers described in Table 2. The results were calculated and presented as relative fold enrichment over the input.
In order to further dissect the mechanism of Lsd1 activity, we analyzed changes in epigenetic marks on several sites along the Atoh1 gene using chromatin immunoprecipitation. We used the LCPs starting at day 0 (D0) of differentiation with day 10 (D10) as the endpoint (FIG. 5A). Lsd1 has been characterized to demethylate the activating epigenetic marks H3K4me and H3K4me2 (Shi et al., 2004). […] Consistently, we observed accumulation of the activating H3K4me2 mark at the proximal promoter region (region 2) of the Atoh1 gene during hair cell differentiation (D10, p<0.05*: FIG. 5B). […] In addition, we examined the enrichment levels of H3K4me around the Atoh1 locus. […] Collectively, these findings reveal that Lsd1 inhibition increases accumulation of activating epigenetic marks, thereby facilitating the opening of the chromatin and activating transcription of the Atoh1 gene.
As Lsd1 is also known to demethylate H3K9me2, we analyzed the changes in the levels of this repressive mark at the Atoh1 locus (Metzger et al., 2005).

[1] = tested on: Lgr5-expressing cochlear progenitors cells (LCPs); assay: Proliferation of Lgr5+ cochlear progenitors (LCPs) in organoid culture; conditions: first 10 days in culture, Lgr5-nGFP mice cells, combined with CHIR99021
Procedure: Isolation and expansion of inner ear Lgr5+ cells. A recently published protocol was used to derive organoids from inner ear stem cells [also referred to as Lgr5+ cochlear progenitors (LCPs) (McLean et al., 2017). Briefly, the organ of Corti was dissected from neonatal mice (postnatal days 2-5) in Hank's balanced salt solution and treated with Cell Recovery Solution (Corning) for 1 hour. The cochlear epithelium was then peeled from the underlying mesenchyme, collected and treated with TrypleE for 20 minutes at 37° C. The single cells were mechanically triturated, filtered ([…] cell strainer) and suspended in a Matrigel (Corning) dome for 3D culture. The cells were seeded in a 24-well plate, specifically at one cochlea per well of a 24-well plate.
For the drug screening experiments, the expanded cells were passaged into a 96 well plate to test varying drug combinations. All experiments were done in triplicate at minimum. Atoh1-nGFP cells were quantified after 10 days in culture. The cell colonies were incubated in Cell Recovery Solution for 1 hour and dissociated into single cells using TrypleE. The total cell number and percentage of GFP+ cells were quantified using fluorescence activated cell sorting (FACS).
We screened a collection of Lsd1 inhibitors over the first 10 days in culture (FIGS. 9A and 9B) to examine their effect on proliferation of LCPs (FIGS. 9C and 9D). […]

Atoh1 = assay: qRT-PCR of Atoh1 in differentiated LCP organoids; conditions: D10, pargyline-treated cells relative to standard treatment
Procedure: as §1, §2, §3

C#CCN(C)Cc1ccccc1 [pargyline, N-Methyl-N-propargylbenzylamine]
Myo7a expression (Myo7a): significantly upregulated | levels of H3K4me2 at the enhancer regions (region 5) of Atoh1 (Atoh1 locus; D10 with pargyline): not statistically significant | level of H3K4me2 at the proximal promoter region (region 2) of Atoh1 (Atoh1 locus; D10 with pargyline compared to D0, p<0.01): significantly increased | enrichment for H3K9me2 on the Atoh1 gene (Atoh1 locus; addition of pargyline): did not significantly alter | H3K4me mark at the enhancer region (region 5) of Atoh1 (Atoh1 locus; after pargyline treatment, p<0.01): significant enrichment | proliferation of Lgr5 cells (LCP cell division) [1]: 26% | mRNA levels of Atoh1 (Atoh1): no difference
